Measurements as given in patent US8044079B2, “Substituted oxindole derivatives, medicaments containing said derivatives and use thereof” (Abbott GmbH & Co. KG, priority 2005, dated 2011).

biological target: T1, human vasopressin V1b receptor (Homo sapiens, UniProt P47901); assay: Vasopressin V1b receptor binding test; conditions: membranes of CHO-K1 cells with human V1b receptor, displacement of 1.5 nM 3H-AVP; for compounds with more than one stereogenic center the diastereomer with greater affinity
T1 construct: expressed in transfected cells; host or cells: CHO-K1 (cell line hV1b_3H2_CHO), membrane preparation
T1 sequence (P47901 1-424): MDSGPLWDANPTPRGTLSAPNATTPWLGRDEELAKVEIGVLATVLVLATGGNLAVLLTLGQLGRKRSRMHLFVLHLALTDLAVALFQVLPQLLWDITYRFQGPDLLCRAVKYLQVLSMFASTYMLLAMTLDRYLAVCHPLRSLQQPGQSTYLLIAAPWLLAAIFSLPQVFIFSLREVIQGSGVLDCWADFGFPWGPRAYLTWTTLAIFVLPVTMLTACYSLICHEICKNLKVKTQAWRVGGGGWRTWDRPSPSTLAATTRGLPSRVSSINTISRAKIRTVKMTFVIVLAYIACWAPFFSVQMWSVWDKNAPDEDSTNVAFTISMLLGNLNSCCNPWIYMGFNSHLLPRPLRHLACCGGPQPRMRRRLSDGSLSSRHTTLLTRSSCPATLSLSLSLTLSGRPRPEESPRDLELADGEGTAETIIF
Protocol: Vasopressin V1b Receptor Binding Test:
The test substances were dissolved at a concentration of 10^−2 M in DMSO, and were further diluted to 5×10^−4 M to 5×10^−9 M in DMSO. This DMSO predilution series was diluted 1:10 with test buffer. In the test assay the substance concentration was further diluted to 1:5 (2% DMSO in the assay).
The membrane pellet was homogenized again as described and centrifuged, and was then taken up in 50 mM tris-HCl at pH 7.4, homogenized, and frozen in aliquots at −190° C. and stored in liquid nitrogen.
The incubation buffer was 50 mM tris, 10 mM MgCl2, and 0.1% BSA at pH 7.4. […] The nonspecific binding was determined using 1 μM AVP (Bachem #H1780). All determinations were performed in triplicate. After incubation (60 minutes at room temperature), the free radioligand was filtered off by vacuum filtration (Skatron 7000 cell harvester) through Wathman GF/B fiberglass filter mats, and the filters were transferred to scintillation vessels. The liquid scintillation measurement was conducted in a Model 2000 or 2200CA TriCarb unit (Packard). The measured cpm was converted to dpm using a standard quench series.
The binding parameters were calculated by nonlinear regression in SAS.
The affinities of the compounds according to the invention for human vasopressin receptor V1b were measured according to the above test, and the affinity constants (Ki) were determined.

Structure (SMILES) | Ki [nM]
CCN(C)Cc1ccc(OC)c(C2(N3CCC[C@H]3c3ncco3)C(=O)N(S(=O)(=O)c3ccc(OC)cc3)c3ccc(C#N)cc32)c1 (stereo partly drawn) [Example 48, 5-Cyano-3-{5-[(ethylmethylamino)methyl]-2-methoxyphenyl}-1-(4-methoxybenzenesulfonyl)-3-((S)-2-oxazol-2-yl-pyrrolidin-1-yl)-1,3-dihydroindol-2-one] | 10 to 100
CCN(CC)Cc1ccc(OC)c(C2(N3CCC[C@H]3c3ncco3)C(=O)N(S(=O)(=O)c3ccc(OC)cc3)c3ccc(C#N)cc32)c1 (stereo partly drawn) [Example 49, 5-Cyano-3-(5-diethylaminomethyl-2-methoxyphenyl)-1-(4-methoxybenzenesulfonyl)-3-((S)-2-oxazol-2-yl-pyrrolidin-1-yl)-1,3-dihydroindol-2-one] | 10 to 100
CCCNCc1ccc(OC)c(C2(N3CCC[C@H]3c3ncco3)C(=O)N(S(=O)(=O)c3ccc(OC)cc3)c3ccc(C#N)cc32)c1 (stereo partly drawn) [Example 50, 5-Cyano-1-(4-methoxybenzenesulfonyl)-3-(2-methoxy-5-propylaminomethylphenyl)-3-((S)-2-oxazol-2-yl-pyrrolidin-1-yl)-1,3-dihydroindol-2-one] | < 10
COc1ccc(S(=O)(=O)N2C(=O)C(c3cc(CNC(C)C)ccc3OC)(N3CCC[C@H]3c3ncco3)c3cc(C#N)ccc32)cc1 (stereo partly drawn) [Example 52, 5-Cyano-3-[5-(isopropylaminomethyl)-2-methoxyphenyl]-1-(4-methoxybenzenesulfonyl)-3-((S)-2-oxazol-2-yl-pyrrolidin-1-yl)-1,3-dihydroindol-2-one] | 10 to 100
COc1ccc(S(=O)(=O)N2C(=O)C(c3cc(CN(C)C(C)C)ccc3OC)(N3CCC[C@H]3c3ncco3)c3cc(C#N)ccc32)cc1 (stereo partly drawn) [Example 53, 5-Cyano-3-{5-[(isopropylmethylamino)methyl]-2-methoxyphenyl}-1-(4-methoxybenzenesulfonyl)-3-((S)-2-oxazol-2-yl-pyrrolidin-1-yl)-1,3-dihydroindol-2-one] | 10 to 100
COc1ccc(S(=O)(=O)N2C(=O)C(c3cc(CNCCO)ccc3OC)(N3CCC[C@H]3c3ncco3)c3cc(C#N)ccc32)cc1 (stereo partly drawn) [Example 54, 5-Cyano-3-{5-[(2-hydroxyethylamino)methyl]-2-methoxyphenyl}-1-(4-methoxybenzenesulfonyl)-3-((S)-2-oxazol-2-yl-pyrrolidin-1-yl)-1,3-dihydroindol-2-one] | 10 to 100
COCCN(C)Cc1ccc(OC)c(C2(N3CCC[C@H]3c3ncco3)C(=O)N(S(=O)(=O)c3ccc(OC)cc3)c3ccc(C#N)cc32)c1 (stereo partly drawn) [Example 55, 5-Cyano-1-(4-methoxybenzenesulfonyl)-3-(2-methoxy-5-{[(2-methoxyethyl)methylamino]methyl}phenyl)-3-((S)-2-oxazol-2-yl-pyrrolidin-1-yl)-1,3-dihydroindol-2-one] | 10 to 100
COc1ccc(S(=O)(=O)N2C(=O)C(c3cc(CN4CCN(C)CC4)ccc3OC)(N3CCC[C@H]3c3ncco3)c3cc(C#N)ccc32)cc1 (stereo partly drawn) [Example 56, 5-Cyano-1-(4-methoxybenzenesulfonyl)-3-[2-methoxy-5-(4-methylpiperazin-1-ylmethyl)phenyl]-3-((S)-2-oxazol-2-yl-pyrrolidin-1-yl)-1,3-dihydroindol-2-one] | < 10
COc1ccc(S(=O)(=O)N2C(=O)C(c3cc(CN4CCNCC4)ccc3OC)(N3CCC[C@H]3c3ncco3)c3cc(C#N)ccc32)cc1 (stereo partly drawn) [Example 57, 5-Cyano-1-(4-methoxybenzenesulfonyl)-3-(2-methoxy-5-piperazin-1-ylmethylphenyl)-3-((S)-2-oxazol-2-yl-pyrrolidin-1-yl)-1,3-dihydroindol-2-one] | < 10
COc1ccc(S(=O)(=O)N2C(=O)C(c3cc(CN4CCOCC4)ccc3OC)(N3CCC[C@H]3c3ncco3)c3cc(C#N)ccc32)cc1 (stereo partly drawn) [Example 58, 5-Cyano-1-(4-methoxybenzenesulfonyl)-3-(2-methoxy-5-morpholin-4-ylmethylphenyl)-3-((S)-2-oxazol-2-yl-pyrrolidin-1-yl)-1,3-dihydroindol-2-one] | 10 to 100
COc1ccc(S(=O)(=O)N2C(=O)C(c3cc(CN4CCCC4)ccc3OC)(N3CCC[C@H]3c3ncco3)c3cc(C#N)ccc32)cc1 (stereo partly drawn) [Example 60, 5-Cyano-1-(4-methoxybenzenesulfonyl)-3-(2-methoxy-5-pyrrolidin-1-ylmethylphenyl)-3-((S)-2-oxazol-2-yl-pyrrolidin-1-yl)-1,3-dihydroindol-2-one] | 10 to 100
COc1ccc(S(=O)(=O)N2C(=O)C(c3cc(CN4CCCCC4)ccc3OC)(N3CCC[C@H]3c3ncco3)c3cc(C#N)ccc32)cc1 (stereo partly drawn) [Example 61, 5-Cyano-1-(4-methoxybenzenesulfonyl)-3-(2-methoxy-5-piperidin-1-ylmethylphenyl)-3-((S)-2-oxazol-2-yl-pyrrolidin-1-yl)-1,3-dihydroindol-2-one] | 10 to 100
CNCc1ccc(OC)c(C2(N3CCC[C@H]3c3ncco3)C(=O)N(S(=O)(=O)c3ccc(OC)cc3)c3cc(Cl)c(Cl)cc32)c1 (stereo partly drawn) [Example 63, 5,6-Dichloro-1-(4-methoxybenzenesulfonyl)-3-(2-methoxy-5-methylaminomethylphenyl)-3-((S)-2-oxazol-2-yl-pyrrolidin-1-yl)-1,3-dihydroindol-2-one] | 10 to 100
COc1ccc(S(=O)(=O)N2C(=O)C(c3cc(CN(C)C)ccc3OC)(N3CCC[C@H]3c3ncco3)c3cc(Cl)c(Cl)cc32)cc1 (stereo partly drawn) [Example 64, 5,6-Dichloro-3-(5-dimethylaminomethyl-2-methoxyphenyl)-1-(4-methoxybenzenesulfonyl)-3-((S)-2-oxazol-2-yl-pyrrolidin-1-yl)-1,3-dihydroindol-2-one] | 10 to 100
CCNCc1ccc(OC)c(C2(N3CCC[C@H]3c3ncco3)C(=O)N(S(=O)(=O)c3ccc(OC)cc3)c3cc(Cl)c(Cl)cc32)c1 (stereo partly drawn) [Example 65, 5,6-Dichloro-3-(5-ethylaminomethyl-2-methoxyphenyl)-1-(4-methoxybenzenesulfonyl)-3-((S)-2-oxazol-2-yl-pyrrolidin-1-yl)-1,3-dihydroindol-2-one] | 10 to 100
CCCNCc1ccc(OC)c(C2(N3CCC[C@H]3c3ncco3)C(=O)N(S(=O)(=O)c3ccc(OC)cc3)c3cc(Cl)c(Cl)cc32)c1 (stereo partly drawn) [Example 68, 5,6-Dichloro-1-(4-methoxybenzenesulfonyl)-3-(2-methoxy-5-propylaminomethylphenyl)-3-((S)-2-oxazol-2-yl-pyrrolidin-1-yl)-1,3-dihydroindol-2-one] | 10 to 100
COc1ccc(S(=O)(=O)N2C(=O)C(c3cc(CNC(C)C)ccc3OC)(N3CCC[C@H]3c3ncco3)c3cc(Cl)c(Cl)cc32)cc1 (stereo partly drawn) [Example 70, 5,6-Dichloro-3-[5-(isopropylaminomethyl)-2-methoxyphenyl]-1-(4-methoxybenzenesulfonyl)-3-((S)-2-oxazol-2-yl-pyrrolidin-1-yl)-1,3-dihydroindol-2-one] | 10 to 100
COc1ccc(S(=O)(=O)N2C(=O)C(c3cc(CN4CCN(C)CC4)ccc3OC)(N3CCC[C@H]3c3ncco3)c3cc(Cl)c(Cl)cc32)cc1 (stereo partly drawn) [Example 74, 5,6-Dichloro-1-(4-methoxybenzenesulfonyl)-3-[2-methoxy-5-(4-methylpiperazin-1-ylmethyl)phenyl]-3-((S)-2-oxazol-2-yl-pyrrolidin-1-yl)-1,3-dihydroindol-2-one] | 10 to 100
COc1ccc(S(=O)(=O)N2C(=O)C(c3cc(CN4CCNCC4)ccc3OC)(N3CCC[C@H]3c3ncco3)c3cc(Cl)c(Cl)cc32)cc1 (stereo partly drawn) [Example 75, 5,6-Dichloro-1-(4-methoxybenzenesulfonyl)-3-(2-methoxy-5-piperazin-1-ylmethylphenyl)-3-((S)-2-oxazol-2-yl-pyrrolidin-1-yl)-1,3-dihydroindol-2-one] | 10 to 100
COc1ccc(S(=O)(=O)N2C(=O)C(c3cc(CN4CCCC4)ccc3OC)(N3CCC[C@H]3c3ncco3)c3cc(Cl)c(Cl)cc32)cc1 (stereo partly drawn) [Example 78, 5,6-Dichloro-1-(4-methoxybenzenesulfonyl)-3-(2-methoxy-5-pyrrolidin-1-ylmethylphenyl)-3-((S)-2-oxazol-2-yl-pyrrolidin-1-yl)-1,3-dihydroindol-2-one] | 10 to 100
CCOc1ccc(S(=O)(=O)N2C(=O)C(c3cc(CN4CCN(C)CC4)ccc3OC)(N3CCC[C@H]3c3ncco3)c3cc(Cl)ccc32)cc1 (stereo partly drawn) [Example 80, 5-Chloro-1-(4-ethoxybenzenesulfonyl)-3-[2-methoxy-5-(4-methylpiperazin-1-ylmethyl)phenyl]-3-((S)-2-oxazol-2-yl-pyrrolidin-1-yl)-1,3-dihydroindol-2-one] | 10 to 100
